CC50, EC50 and inhibition data for twelve compounds are collected here from ChEMBL document CHEMBL4325912, “Discovery of 2-(1H-imidazo-2-yl)piperazines as a new class of potent and non-cytotoxic inhibitors of Trypanosoma brucei growth in vitro” (Bioorg Med Chem Lett, 2018).

Active and inactive are the calls of the source. No cut-off for these calls is given here.

Tested on in one data set: not listed separately
Briefly: Cytotoxicity against human HeLa cells assessed as reduction in cell viability after 72 hrs by celltiter glo assay.
Settings: not given
Type of data set: cell-based. A general note: In ATP-based viability assays light output follows the ATP content of the culture.
For orientation: CC50 means the concentration giving 50% cytotoxicity. Regarding `CCC(=O)CCCN1CCN(C(=O)Cc2c(C)[nH]c3ccc(OC)cc23)C(c2nnc(-c3ccc4ccccc4c3)o2)C1` (stereo not drawn), the CC50 at 72 h was greater than 25000 nM.
Still for that read-out and setting: to `COC(=O)CCCN1CCN(C(=O)Cc2c(C)[nH]c3ccc(OC)cc23)C(c2ncc(-c3ccc4ccccc4c3)[nH]2)C1` (stereo not drawn) belongs 28800 nM.
The same measure, in the same setting: to `CCC(=O)CCCN1CCN(C(=O)Cc2ccccc2)C(c2ncc(-c3ccc4ccccc4c3)[nH]2)C1` (stereo not drawn) belongs greater than 25000 nM; to `COc1ccc2[nH]c(C)c(CC(=O)N3CCN(C)CC3c3ncc(-c4ccc5ccccc5c4)[nH]3)c2c1` (stereo not drawn), greater than 25000 nM; to `CCC(=O)CCCN1CCN(C(=O)Cc2c[nH]c3ccccc23)[C@H](c2ncc(-c3ccc4ccccc4c3)[nH]2)C1`, greater than 25000 nM.
`CCC(=O)CCCN1CCN(C(=O)Cc2c(C)[nH]c3ccc(OC)cc23)C(c2ncc(-c3ccc4ccccc4c3)o2)C1` (stereo not drawn): the CC50 at 72 h came out at 20600 nM.
Still for that read-out and setting: to `COc1ccc2[nH]c(C)c(CC(=O)N3CCN(CCCC(N)=O)CC3c3ncc(-c4ccc5ccccc5c4)[nH]3)c2c1` (stereo not drawn) belongs greater than 25000 nM; to `CCC(=O)CCCN1CCN(C(=O)Cc2c[nH]c3ncccc23)C(c2ncc(-c3ccc4ccccc4c3)[nH]2)C1` (stereo not drawn), greater than 25000 nM.
On the same count and under the same terms, to `COc1ccc2[nH]c(C)c(CC(=O)N3CCN(CCCC(=O)O)CC3c3ncc(-c4ccc5ccccc5c4)[nH]3)c2c1` (stereo not drawn) belongs greater than 50000 nM.
As to `CCC(=O)CCC(=O)N1CCN(C(=O)Cc2c(C)[nH]c3ccc(OC)cc23)C(c2ncc(-c3ccc4ccccc4c3)[nH]2)C1` (stereo not drawn), the CC50 at 72 h was greater than 25000 nM.
For the compound `CCC(=O)CCCN1CCN(Cc2ccccc2)C(c2ncc(-c3ccc4ccccc4c3)[nH]2)C1` (stereo not drawn), the CC50 at 72 h turned out to be 14700 nM.
For `CCC(=O)CCCN1CCN(S(=O)(=O)c2ccccc2)C(c2ncc(-c3ccc4ccccc4c3)[nH]2)C1` (stereo not drawn), the CC50 at 72 h is greater than 25000 nM.

Another data set has as its system Trypanosoma brucei. The experiment in a line: Antitrypanosomal activity against Trypanosoma brucei Lister 427 bloodstream forms in presence of 10% FBS after 24 hrs by celltiter glo assay. As to conditions: Lister 427, 24 h. It is filed as functional, organism-based.
One may read the EC50 as the concentration giving half of the maximal effect. With `CCC(=O)CCCN1CCN(C(=O)Cc2c(C)[nH]c3ccc(OC)cc23)C(c2nnc(-c3ccc4ccccc4c3)o2)C1` (stereo not drawn), the EC50 came out at 304 nM.
The same measure, in the same setting: for `COC(=O)CCCN1CCN(C(=O)Cc2c(C)[nH]c3ccc(OC)cc23)C(c2ncc(-c3ccc4ccccc4c3)[nH]2)C1` (stereo not drawn) the value was 154 nM; for `CCC(=O)CCCN1CCN(C(=O)Cc2ccccc2)C(c2ncc(-c3ccc4ccccc4c3)[nH]2)C1` (stereo not drawn), 1800 nM.
On to `COc1ccc2[nH]c(C)c(CC(=O)N3CCN(C)CC3c3ncc(-c4ccc5ccccc5c4)[nH]3)c2c1` (stereo not drawn), for which the EC50 stood at 38 nM.
On the same count and under the same terms, for `CCC(=O)CCCN1CCN(C(=O)Cc2c[nH]c3ccccc23)[C@H](c2ncc(-c3ccc4ccccc4c3)[nH]2)C1` the value was 423 nM; for `CCC(=O)CCCN1CCN(C(=O)Cc2c(C)[nH]c3ccc(OC)cc23)C(c2ncc(-c3ccc4ccccc4c3)o2)C1` (stereo not drawn), 1260 nM.
In the case of `COc1ccc2[nH]c(C)c(CC(=O)N3CCN(CCCC(N)=O)CC3c3ncc(-c4ccc5ccccc5c4)[nH]3)c2c1` (stereo not drawn), the EC50 is 207 nM.
As for `CCC(=O)CCCN1CCN(C(=O)Cc2c[nH]c3ncccc23)C(c2ncc(-c3ccc4ccccc4c3)[nH]2)C1` (stereo not drawn), the EC50 turned out to be 545 nM.
With `COc1ccc2[nH]c(C)c(CC(=O)N3CCN(CCCC(=O)O)CC3c3ncc(-c4ccc5ccccc5c4)[nH]3)c2c1` (stereo not drawn), the EC50 worked out at 1100 nM.
Regarding `CCC(=O)CCC(=O)N1CCN(C(=O)Cc2c(C)[nH]c3ccc(OC)cc23)C(c2ncc(-c3ccc4ccccc4c3)[nH]2)C1` (stereo not drawn), the EC50 was determined as 492 nM.
Still for that read-out and setting: to `CCC(=O)CCCN1CCN(Cc2ccccc2)C(c2ncc(-c3ccc4ccccc4c3)[nH]2)C1` (stereo not drawn) belongs 1720 nM; to `CCC(=O)CCCN1CCN(S(=O)(=O)c2ccccc2)C(c2ncc(-c3ccc4ccccc4c3)[nH]2)C1` (stereo not drawn), 4120 nM.

A further data set deals with Trypanosoma brucei. Briefly: Inhibition of Trypanosoma brucei GSK3.
Settings: not given
With `COc1ccc2[nH]c(C)c(CC(=O)N3CCN(C)CC3c3ncc(-c4ccc5ccccc5c4)[nH]3)c2c1` (stereo not drawn), the inhibition entry is “inactive”.

The next data set concerns Trypanosoma brucei. Briefly: Inhibition of Trypanosoma brucei adenosine kinase.
Settings: not given
For `COc1ccc2[nH]c(C)c(CC(=O)N3CCN(C)CC3c3ncc(-c4ccc5ccccc5c4)[nH]3)c2c1` (stereo not drawn), the inhibition entry is “inactive”.

The test system of the next data set is Trypanosoma brucei. The experiment in a line: Inhibition of Trypanosoma brucei Aurora 1 kinase.
Settings: not given
As to `COc1ccc2[nH]c(C)c(CC(=O)N3CCN(C)CC3c3ncc(-c4ccc5ccccc5c4)[nH]3)c2c1` (stereo not drawn), the inhibition entry was “inactive”.

Another data set relates to Trypanosoma brucei. The experiment in a line: Inhibition of Trypanosoma brucei trypanothione reductase.
Settings: not given
Turning to `COc1ccc2[nH]c(C)c(CC(=O)N3CCN(C)CC3c3ncc(-c4ccc5ccccc5c4)[nH]3)c2c1` (stereo not drawn), the inhibition result is “inactive”.
